Experimental data as given in US20220119354A1, “DIAMINO-SUBSTITUTED PYRIDINES AND PYRIMIDINES AS HERBICIDES” (FMC Corporation, priority 2019, published 2022).

Legend:
Type in all cases: in vivo
[1] = system: foxtail, giant (Setaria faberii); test: Test A postemergence, giant foxtail; conditions: 0 to 100 scale
Text: (§1) Seeds of plant species selected from barnyardgrass (Echinochloa crus-galli), kochia (Kochia scoparia), ragweed (common ragweed, Ambrosia elatior), ryegrass, Italian (Lolium multiflorum), foxtail, giant (Setaria faberii), foxtail, green (Setaria viridis), and pigweed (Amaranthus retroflexus) were planted into a blend of loam soil and sand and treated preemergence with a directed soil spray using test chemicals formulated in a non-phytotoxic solvent mixture which included a surfactant.
(§2) At the same time, plants selected from these weed species and also wheat (Triticum aestivum), corn (Zea mays), blackgrass (Alopecurus myosuroides), and galium (catchweed bedstraw, Galium aparine) were planted in pots containing the same blend of loam soil and sand and treated with postemergence applications of test chemicals formulated in the same manner. Plants ranged in height from 2 to 10 cm and were in the one- to two-leaf stage for the postemergence treatment. Treated plants and untreated controls were maintained in a greenhouse for approximately 10 d, after which time all treated plants were compared to untreated controls and visually evaluated for injury. Plant response ratings, summarized in Table A, are based on a 0 to 100 scale where 0 is no effect and 100 is complete control. A dash (-) response means no test result.

[2] = system: wheat (Triticum aestivum); test: Test A postemergence, wheat; conditions: 0 to 100 scale
Text: as §1, §2

kochia (Kochia scoparia) [3] = test: Test A preemergence, kochia; conditions: 0 to 100 scale; for Kochia plant response rating: 0 is no effect, 100 is complete control
Text: as §1, §2

[4] = system: pigweed (Amaranthus retroflexus); test: Test A preemergence, pigweed; conditions: 0 to 100 scale; for Pigweed plant response rating: 0 is no effect, 100 is complete control
Text: as §1, §2

[5] = system: galium (catchweed bedstraw, Galium aparine); test: Test A postemergence, galium; conditions: 0 to 100 scale
Text: as §1, §2

[6] = system: pigweed (Amaranthus retroflexus); test: Test A postemergence, pigweed; conditions: 0 to 100 scale
Text: as §1, §2

[7] = system: sedge, umbrella (small-flower umbrella sedge, Cyperus difformis); test: Test B flooded paddy test, umbrella sedge; conditions: Flood, 250 g ai/ha, applied to paddy water, 2-leaf stage, visual evaluation after 13 to 15 d
Procedure: (§3) Plant species in the flooded paddy test selected from rice (Oryza sativa), sedge, umbrella (small-flower umbrella sedge, Cyperus difformis), ducksalad (Heteranthera limosa), and barnyardgrass (Echinochloa crus-galli) were grown to the 2-leaf stage for testing. At the time of treatment, test pots were flooded to 3 cm above the soil surface, treated by application of test compounds directly to the paddy water, and then maintained at that water depth for the duration of the test. Treated plants and controls were maintained in a greenhouse for 13 to 15 d, after which time all species were compared to controls and visually evaluated. Plant response ratings, summarized in Table B, are based on a scale of 0 to 100 where 0 is no effect and 100 is complete control. A dash (-) response means no test result.

corn (Zea mays) = test: Test A postemergence, corn; conditions: 0 to 100 scale
Text: as §1, §2

[8] = system: ducksalad (Heteranthera limosa); test: Test B flooded paddy test, ducksalad; conditions: Flood, 250 g ai/ha, applied to paddy water, 2-leaf stage, visual evaluation after 13 to 15 d
Procedure: as §3

rice (Oryza sativa) = test: Test B flooded paddy test, rice; conditions: Flood, 250 g ai/ha, applied to paddy water, 2-leaf stage, visual evaluation after 13 to 15 d
Procedure: as §3

[9] = system: foxtail, giant (Setaria faberii); test: Test A preemergence, giant foxtail; conditions: 0 to 100 scale; for Foxtail, Giant plant response rating: 0 is no effect, 100 is complete control
Text: as §1, §2

[10] = system: ryegrass, Italian (Lolium multiflorum); test: Test A postemergence, Italian ryegrass; conditions: 0 to 100 scale
Text: as §1, §2

[11] = system: barnyardgrass (Echinochloa crus-galli); test: Test A postemergence, barnyardgrass; conditions: 0 to 100 scale
Text: as §1, §2

kochia (Kochia scoparia) [12] = test: Test A postemergence, kochia; conditions: 0 to 100 scale
Text: as §1, §2

[13] = system: ragweed (common ragweed, Ambrosia elatior); test: Test A postemergence, ragweed; conditions: 0 to 100 scale
Text: as §1, §2

[14] = system: blackgrass (Alopecurus myosuroides); test: Test A postemergence, blackgrass; conditions: 0 to 100 scale
Text: as §1, §2

[15] = system: barnyardgrass (Echinochloa crus-galli); test: Test A preemergence, barnyardgrass; conditions: 0 to 100 scale; for Barnyardgrass plant response rating: 0 is no effect, 100 is complete control
Text: as §1, §2

[16] = system: barnyardgrass (Echinochloa crus-galli); test: Test B flooded paddy test, barnyardgrass; conditions: Flood, 250 g ai/ha, applied to paddy water, 2-leaf stage, visual evaluation after 13 to 15 d
Procedure: as §3

[17] = system: ragweed (common ragweed, Ambrosia elatior); test: Test A preemergence, ragweed; conditions: 0 to 100 scale, 0 is no effect, 100 is complete control
Text: as §1, §2

[18] = system: ryegrass, Italian (Lolium multiflorum); test: Test A preemergence, Italian ryegrass; conditions: 0 to 100 scale, 0 is no effect, 100 is complete control
Text: as §1, §2

[19] = 1000 g ai/ha, 0 is no effect, 100 is complete control
[20] = 125 g ai/ha, 0 no effect, 100 complete control
[21] = 500 g ai/ha, 0 no effect, 100 complete control

Cc1cc(OCC(C)Nc2ncc(C(F)(F)F)c(N)n2)ccc1F (stereo not shown) [Compound 38]
Plant response rating, Foxtail, Giant ([1]; 125 g ai/ha): 0
Plant response rating, Foxtail, Giant ([1]; 500 g ai/ha): 0
Plant response rating, Wheat ([2]; 125 g ai/ha): 0
Plant response rating, Wheat ([2]; 500 g ai/ha): 0
Kochia plant response rating (kochia (Kochia scoparia) [3]; 125 g ai/ha): 0
Plant response rating, Kochia (kochia (Kochia scoparia) [3]; 500 g ai/ha): 60
Pigweed plant response rating ([4]; 125 g ai/ha): 50
Plant response rating, Pigweed ([4]; 500 g ai/ha): 90
Plant response rating, Galium ([5]; 125 g ai/ha): 30
Plant response rating, Galium ([5]; 500 g ai/ha): 70
Plant response rating, Pigweed ([6]; 125 g ai/ha): 20
Plant response rating, Pigweed ([6]; 500 g ai/ha): 80
Plant response rating, Sedge, Umbrella (0 to 100 scale, 0 is no effect, 100 is complete control) [7]: 0
Plant response rating, Corn (corn (Zea mays); 125 g ai/ha): 0
Plant response rating, Corn (corn (Zea mays); 500 g ai/ha): 0
Plant response rating, Ducksalad (0 to 100 scale, 0 is no effect, 100 is complete control) [8]: 0
Plant response rating, Rice (0 to 100 scale, 0 is no effect, 100 is complete control) (rice (Oryza sativa)): 0
Foxtail, Giant plant response rating ([9]; 125 g ai/ha): 20
Plant response rating, Foxtail, Giant ([9]; 500 g ai/ha): 90
Plant response rating, Ryegrass, Italian ([10]; 125 g ai/ha): 0
Plant response rating, Ryegrass, Italian ([10]; 500 g ai/ha): 0
Plant response rating, Barnyardgrass ([11]; 125 g ai/ha): 0
Plant response rating, Barnyardgrass ([11]; 500 g ai/ha): 0
Plant response rating, Kochia (kochia (Kochia scoparia) [12]; 125 g ai/ha): 0
Plant response rating, Kochia (kochia (Kochia scoparia) [12]; 500 g ai/ha): 30
Plant response rating, Ragweed ([13]; 125 g ai/ha): 0
Plant response rating, Ragweed ([13]; 500 g ai/ha): 0
Plant response rating, Blackgrass ([14]; 125 g ai/ha): 0
Plant response rating, Blackgrass ([14]; 500 g ai/ha): 0
Barnyardgrass plant response rating ([15]; 125 g ai/ha): 30
Plant response rating, Barnyardgrass ([15]; 500 g ai/ha): 90
Plant response rating, Barnyardgrass (0 to 100 scale, 0 is no effect, 100 is complete control) [16]: 0

C[C@@H](Nc1nc(N)cc(C(F)(F)F)n1)c1cc2ccccc2s1 [Compound 97]
Foxtail, Giant plant response rating [1, 19]: 0
Wheat plant response rating [2, 19]: 0
Kochia plant response rating (kochia (Kochia scoparia) [3]; 1000 g ai/ha): 0
Ragweed plant response rating ([17]; 1000 g ai/ha): 0
Pigweed plant response rating ([4]; 1000 g ai/ha): 0
Galium plant response rating [5, 19]: 20
Pigweed plant response rating [6, 19]: 0
Ryegrass, Italian plant response rating ([18]; 1000 g ai/ha): 0
Corn plant response rating (corn (Zea mays); [19]): 0
Foxtail, Giant plant response rating ([9]; 1000 g ai/ha): 0
Ryegrass, Italian plant response rating [10, 19]: 0
Barnyardgrass plant response rating [11, 19]: 0
Kochia plant response rating (kochia (Kochia scoparia) [12]; [19]): 20
Ragweed plant response rating [13, 19]: 0
Blackgrass plant response rating [14, 19]: 0
Barnyardgrass plant response rating ([15]; 1000 g ai/ha): 0

Cc1cccc2oc(C(C)Nc3ncc(C(F)(F)F)c(N)n3)cc12 (stereo not shown) [Compound 101]
Plant response rating, Foxtail, Giant [1, 20]: 10
Plant response rating, Foxtail, Giant [1, 21]: 100
Plant response rating, Wheat [2, 20]: 0
Plant response rating, Wheat [2, 21]: 40
Kochia plant response rating (kochia (Kochia scoparia) [3]; 125 g ai/ha): 90
Kochia plant response rating (kochia (Kochia scoparia) [3]; 500 g ai/ha): 90
Ragweed plant response rating ([17]; 125 g ai/ha): 70
Ragweed plant response rating ([17]; 500 g ai/ha): 100
Pigweed plant response rating ([4]; 125 g ai/ha): 70
Pigweed plant response rating ([4]; 500 g ai/ha): 100
Plant response rating, Galium [5, 20]: 80
Plant response rating, Galium [5, 21]: 90
Plant response rating, Pigweed [6, 20]: 100
Plant response rating, Pigweed [6, 21]: 100
Ryegrass, Italian plant response rating ([18]; 125 g ai/ha): 30
Ryegrass, Italian plant response rating ([18]; 500 g ai/ha): 90
Plant response rating, Corn (corn (Zea mays); [20]): 0
Plant response rating, Corn (corn (Zea mays); [21]): 40
Foxtail, Giant plant response rating ([9]; 125 g ai/ha): 100
Foxtail, Giant plant response rating ([9]; 500 g ai/ha): 100
Plant response rating, Ryegrass, Italian [10, 20]: 60
Plant response rating, Ryegrass, Italian [10, 21]: 70
Plant response rating, Barnyardgrass [11, 20]: 30
Plant response rating, Barnyardgrass [11, 21]: 100
Plant response rating, Kochia (kochia (Kochia scoparia) [12]; [20]): 70
Plant response rating, Kochia (kochia (Kochia scoparia) [12]; [21]): 100
Plant response rating, Ragweed [13, 20]: 30
Plant response rating, Ragweed [13, 21]: 100
Plant response rating, Blackgrass [14, 20]: 20
Plant response rating, Blackgrass [14, 21]: 70
Barnyardgrass plant response rating ([15]; 125 g ai/ha): 90
Barnyardgrass plant response rating ([15]; 500 g ai/ha): 90

CC(Nc1ncc(C(F)(F)F)c(N)n1)c1cc2c(Br)cccc2o1 (stereo not shown) [Compound 102]
Plant response rating, Foxtail, Giant [1, 20]: 0
Plant response rating, Foxtail, Giant [1, 21]: 20
Plant response rating, Wheat [2, 20]: 0
Plant response rating, Wheat [2, 21]: 40
Kochia plant response rating (kochia (Kochia scoparia) [3]; 125 g ai/ha): 70
Kochia plant response rating (kochia (Kochia scoparia) [3]; 500 g ai/ha): 90
Ragweed plant response rating ([17]; 125 g ai/ha): 50
Ragweed plant response rating ([17]; 500 g ai/ha): 80
Pigweed plant response rating ([4]; 125 g ai/ha): 100
Pigweed plant response rating ([4]; 500 g ai/ha): 100
Plant response rating, Galium [5, 20]: 100
Plant response rating, Galium [5, 21]: 100
Plant response rating, Pigweed [6, 20]: 100
Plant response rating, Pigweed [6, 21]: 100
Ryegrass, Italian plant response rating ([18]; 125 g ai/ha): 30
Ryegrass, Italian plant response rating ([18]; 500 g ai/ha): 60
Plant response rating, Corn (corn (Zea mays); [20]): 0
Plant response rating, Corn (corn (Zea mays); [21]): 20
Foxtail, Giant plant response rating ([9]; 125 g ai/ha): 80
Foxtail, Giant plant response rating ([9]; 500 g ai/ha): 100
Plant response rating, Ryegrass, Italian [10, 20]: 0
Plant response rating, Ryegrass, Italian [10, 21]: 30
Plant response rating, Barnyardgrass [11, 20]: 10
Plant response rating, Barnyardgrass [11, 21]: 70
Plant response rating, Kochia (kochia (Kochia scoparia) [12]; [20]): 70
Plant response rating, Kochia (kochia (Kochia scoparia) [12]; [21]): 90
Plant response rating, Ragweed [13, 20]: 30
Plant response rating, Ragweed [13, 21]: 100
Plant response rating, Blackgrass [14, 20]: 0
Plant response rating, Blackgrass [14, 21]: 40
Barnyardgrass plant response rating ([15]; 125 g ai/ha): 30
Barnyardgrass plant response rating ([15]; 500 g ai/ha): 80
